Data published in patent publication US20240368191A1, “HETEROCYCLIC COMPOUNDS AND USES THEREOF” (Kumquat Biosciences Inc., priority 2021, published 2024).

Key:
[1] = target: T1, KRAS G12D 1-169 (His-tagged, GDP-loaded) (Homo sapiens, UniProt P01116, G12D); assay: Covalent modification of KRAS protein by intact-protein LC-MS; assay type: binding; conditions: comparable or same conditions as K-Ras G12S
T1 construct: His -tagged GDP-loaded G12D 1-169; made in house; host or cells: E. coli, e.g. BL21 (DE3)
T1 sequence (P01116 1-169 isoform P01116-2 G12D): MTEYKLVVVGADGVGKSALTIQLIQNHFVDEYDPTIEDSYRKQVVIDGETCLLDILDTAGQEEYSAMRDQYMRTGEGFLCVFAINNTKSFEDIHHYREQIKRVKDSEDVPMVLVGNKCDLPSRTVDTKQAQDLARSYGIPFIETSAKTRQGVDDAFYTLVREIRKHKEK
Experimental: Test compounds are prepared as 10 mM stock solutions in DMSO (Fisher cat #BP231-100). KRAS protein (His -tagged GDP-loaded wildtype 1-169, His -tagged GDP-loaded G12S 1-169 or His -tagged GDP-loaded G12D 1-169) is diluted to ˜2 μM in appropriate buffer (e.g., a Hepes buffer at physiological conditions). For testing KRAS modification, compounds are diluted to 50× final test concentration in DMSO in 96-well storage plates. 2 μl of the diluted 50× compounds are added to appropriate wells in the PCR plate (Fisher cat #AB-0800). ˜49 μl of the stock protein solution is added to each well of the 96-well PCR plate. Reactions are mixed carefully. The plate is sealed well with aluminum plate seal, and stored in drawer at room temperature for 24 hrs. 5 μl of 2% formic acid (Fisher cat #A117-50) in MilliQ H2O is then added to each well followed by mixing with a pipette. The plate is then resealed with aluminum seal and stored until mass spectrometry analysis.
The extent of covalent modification of KRAS proteins was determined by liquid chromatography electrospray mass spectrometry analysis of the intact proteins on a Thermo Q-Exactive Plus mass spectrometer. 20 μl of sample was injected onto a bioZen 3.6 μm Intact C4 column (Phenomenex cat #00B-4767-AN) placed in a column oven set to 40° C. and separated using a suitable LC gradient from ˜20% to ˜60% solvent B. Solvent A was 0.1% formic acid and solvent B was 0.1% formic acid in acetonitrile. HESI source settings were set to 40, 5 and 1 for the sheath, auxiliary and sweep gas flow, respectively. The spray voltage was 4 kV, and the capillary temperature was 320° C. S-lens RF level was 50 and auxiliary gas heater temperature was set to 200° C. The mass spectrometry was acquired using a scan range from 650 to 1750 m/z using positive polarity at a mass resolution of 70,000, AGC target of 1e6 ions and maximum injection time of 250 ms. The recorded protein mass spectrum was deconvoluted from the raw data file using Protein Deconvolution v4.0 (Thermo). The protein mass and adduct masses were exported with their peak intensities. The peak intensities for the unmodified and modified protein were used to calculate the percent covalent modification of the KRAS protein based on the following equation: % KRAS protein modification=((KRAS−compound)/(KRAS)+(KRAS−Compound))*100.

[2] = Metabolic (microsomal) stability assay; conditions: pooled liver microsomes, pH 7.4
Experimental: The metabolic stability of a test compound is assayed at 37° C. using pooled liver microsomes (mouse or human liver microsomes). An aliquot of 10 μL of 50 μM test compound is mixed with 490 μL of 0.611 mg/mL liver microsomes, then 50 μL of the mixtures are dispensed to the 96 well tubes and warmed at 37° C. for 10 minutes. The reactions are initiated by adding 50 μL of the pre-warmed NADPH regeneration system solution (add 1.2 μL solution, 240 μl solution B, mix with 10.56 ml KPBS) and then incubated at 37° C. The final incubation solution contains 100 mM potassium phosphate (pH 7.4), 1.3 mM NADP+, 3.3 mM glucose 6-phosphate, 0.4 Unit/mL of glucose 6-phosphate dehydrogenase, 3.3 mM magnesium chloride, 0.3 mg/mL liver microsomes and 0.5 μM test article. After 0, 15, 30 and 60 minutes in a shaking incubator, the reactions are terminated by adding 100 μL of acetonitrile containing 200 nM buspirone as an internal standard. All incubations are conducted in duplicate. […] Samples are then centrifuged at 3500 rpm for 10 minutes (4° C.) using Sorvall Legend XRT Centrifuge (Thermo Scientific, GE). Supernatants (40 μL) are transferred into clean 96-deep well plates. Each well is added with 160 μL of ultrapure water (Milli-Q, Millipore Corporation) with 0.1% (v/v) formic acid (Fisher Chemical), mixed thoroughly and subjected to LC/MS/MS analysis in MRM positive ionization mode.
All the samples are measured using a mass spectrometer (QTrap 5500 quadrupole/ion trap) coupled with a Shimadzu HPLC system. The HPLC system consisted of a Shimadzu series degasser, binary quaternary gradient pumps, column heater coupled to an autosampler, and a Phenomenex Gemini-NX, C18, 3.0 μm or Phenomenex Lunar, C8, 5.0 μM HPLC column (Phenomenex, Torrance, CA), and eluted with a mobile phase gradient consisting of Solution A (0.1% formic acid water) and Solution B (0.1% formic acid acetonitrile). The column temperature is maintained at 40° C. All the analytes are detected with positive-mode electrospray ionization (ES+).
The half-life for the metabolic degradation of the test compound is calculated by plotting the time-course disappearance of the test compound during the incubation with liver microsomes. Each plot is fitted to a first-order equation for the elimination of the test compound (% remaining compound) versus time using non-linear regression (Equation 1).
where Ct is the mean relative substrate concentration at time t and C0 is the initial concentration (0.5 μM) at time 0. Note that the area ratio of the substrate peak to an internal standard peak is proportional to the analyte concentration and is used for regression analysis to derive a value of k.

SMILES	covalent labeling of K-Ras G12D [1]	half-life at 0.5 μM [2] [min]
Cc1ncn(C(=O)N2CC3(C2)CN(c2nc(OC[C@@]45CCCN4C[C@H](F)C5)nc4c(F)c(-c5ccc(F)c6sc(N)c(C#N)c56)c(Cl)cc24)CCO3)n1 [Compound A148, 2-amino-4-(6-chloro-8-fluoro-2-(((2R,7aS)-2-fluorotetrahydro-1H-pyrrolizin-7a(5H)-yl)-methoxy)-4-(2-(3-methyl-1H-1,2,4-triazole-1-carbonyl)-5-oxa-2,8-diazaspiro[3.5]nonan-8-yl)quinazolin-7-yl)-7-fluoro-benzo[b]thiophene-3-carbonitrile]	essentially no detectable labeling	> 10
N#Cc1c(N)sc2c(F)ccc(-c3c(Cl)cc4c(N5CC6(CN(C(=O)n7cncn7)CCO6)C5)nc(OC[C@@]56CCCN5C[C@H](F)C6)nc4c3F)c12 [Compound A140, 4-(4-(8-(1H-1,2,4-triazole-1-carbonyl)-5-oxa-2,8-diaza-spiro[3.5]nonan-2-yl)-6-chloro-8-fluoro-2-(((2R,7aS)-2-fluoro-tetrahydro-1H-pyrrolizin-7a(5H)-yl)methoxy)quinazolin-7-yl)-2-amino-7-fluorobenzo-[b]thiophene-3-carbonitrile]		> 10
N#Cc1c(N)sc2c(F)ccc(-c3c(Cl)cc4c(N5CCCC6(CN(C(=O)n7cncn7)C6)C5)nc(OC[C@@]56CCCN5C[C@H](F)C6)nc4c3F)c12 [Compound A129, 4-(4-(2-(1H-1,2,4-triazole-1-carbonyl)-2,6-diazaspiro[3.5]-nonan-6-yl)-6-chloro-8-fluoro-2-(((2R,7aS)-2-fluorotetrahydro-1H-pyrrolizin-7a(5H)-yl)meth-oxy)quinazolin-7-yl)-2-amino-7-fluorobenzo[b]thiophene-3-carbonitrile]		> 10
Cc1ncn(C(=O)N2CCCC(Oc3nc(OC[C@@]45CCCN4C[C@H](F)C5)nc4c(F)c(-c5ccc(F)c6sc(N)c(C#N)c56)c(Cl)cc34)CC2)n1 (stereo partly drawn) [Compound A174, 2-amino-4-(6-chloro-8-fluoro-2-(((2R,7aS)-2-fluorotetra-hydro-1H-pyrrolizin-7a(5H)-yl)methoxy)-4-((1-(3-methyl-1H-1,2,4-triazole-1-carbonyl)-azepan-4-yl)oxy)quinazolin-7-yl)-7-fluorobenzo[b]thiophene-3-carbonitrile]		> 10
Nc1nc2c(-c3c(Cl)cc4c(N5CCC56CCN(C(=O)n5cncn5)CC6)nc(OC[C@@]56CCCN5C[C@H](F)C6)nc4c3F)ccc(F)c2s1 [Compound A288, (1-(7-(2-amino-7-fluorobenzo-[d]thiazol-4-yl)-6-chloro-8-fluoro-2-(((2R,7aS)-2-fluoro-tetrahydro-1H-pyrrolizin-7a(5H)-yl)methoxy)quinazolin-4-yl)-1,7-diazaspiro[3.5]nonan-7-yl)(1H-1,2,4-triazol-1-yl)-methanone]		> 10
N#Cc1c(N)sc2c(F)ccc(-c3c(Cl)cc4c(N5CCC6C5CCCN6C(=O)n5cncn5)nc(OC[C@@]56CCCN5C[C@H](F)C6)nc4c3F)c12 (stereo partly drawn) [Compound A181, 4-(4-(4-(1H-1,2,4-triazole-1-carbonyl)octahydro-1H-pyrrolo[3,2-b]pyridin-1-yl)-6-chloro-8-fluoro-2-(((2R,7aS)-2-fluorotetrahydro-1H-pyrrol-izin-7a(5H)-yl)methoxy)quin-azolin-7-yl)-2-amino-7-fluoro-benzo[b]thiophene-3-carbonitrile]		> 10
C#Cc1c(F)ccc2cc(O)cc(-c3ncc4c(N5CCOC6(CN(C(=O)n7cncn7)C6)C5)nc(OC[C@@]56CCCN5C[C@H](F)C6)nc4c3F)c12 [Compound A106, (8-(7-(8-ethynyl-7-fluoro-3-hydroxynaphthalen-1-yl)-8-fluoro-2-(((2R,7aS)-2-fluoro-tetrahydro-1H-pyrrolizin-7a(5H)-yl)methoxy)pyrido-[4,3-d]pyrimidin-4-yl)-5-oxa-2,8-diazaspiro[3.5]nonan-2-yl)(1H-1,2,4-triazol-1-yl)-methanone]		> 10
N#Cc1c(N)sc2c(F)ccc(-c3c(Cl)cc4c(N5CCOC6(CN(C(=O)n7cncn7)C6)C5)nc(OC[C@@]56CCCN5C[C@H](F)C6)nc4c3F)c12 [Compound A132, 4-(4-(2-(1H-1,2,4-triazole-1-carbonyl)-5-oxa-2,8-diaza-spiro[3.5]nonan-8-yl)-6-chloro-8-fluoro-2-(((2R,7aS)-2-fluorotetrahydro-1H-pyrrolizin-7a(5H)-yl)methoxy)quinazolin-7-yl)-2-amino-7-fluorobenzo-[b]thiophene-3-carbonitrile]		> 10
N#CC[C@H]1CN(c2nc(OC[C@@]34CCCN3C[C@H](F)C4)nc3c(F)c(-c4ccc(F)c5sc(N)nc45)c(Cl)cc23)CCN1C(=O)n1cncn1 [Compound A145, 2-((2S)-4-(7-(2-amino-7-fluorobenzo[d]thiazol-4-yl)-6-chloro-8-fluoro-2-(((2R,7aS)-2-fluorotetrahydro-1H-pyrrolizin-7a(5H)-yl)methoxy)quinazolin-4-yl)-1-(1H-1,2,4-triazole-1-carbonyl)piperazin-2-yl)aceto-nitrile]		> 10
N#Cc1c(N)sc2c(F)ccc(-c3c(Cl)cc4c(N5CCN(CC6CC6)C6(CN(C(=O)n7cncn7)C6)C5)nc(OC[C@@]56CCCN5C[C@H](F)C6)nc4c3F)c12 [Compound A139, 2-amino-4-(6-chloro-4-(5-(cyclopropylmethyl)-2-(1H-1,2,4-triazole-1-carbonyl)-2,5,8-triazaspiro[3.5]nonan-8-yl)-8-fluoro-2-(((2R,7aS)-2-fluoro-tetrahydro-1H-pyrrolizin-7a(5H)-yl)methoxy)quinazolin-7-yl)-7-fluorobenzo[b]thiophene-3-carbonitrile]		> 10
Nc1nc2c(-c3c(Cl)cc4c(N5CC6(CN(C(=O)n7cncn7)CCO6)C5)nc(OC[C@@]56CCCN5C[C@H](F)C6)nc4c3F)ccc(F)c2s1 [Compound A268, (2-(7-(2-amino-7-fluorobenzo-[d]thiazol-4-yl)-6-chloro-8-fluoro-2-(((2R,7aS)-2-fluoro-tetrahydro-1H-pyrrolizin-7a(5H)-yl)methoxy)quinazolin-4-yl)-5-oxa-2,8-diazaspiro[3.5]-nonan-8-yl)(1H-1,2,4-triazol-1-yl)methanone]		> 10
C[C@@H]1CN(C(=O)n2cncn2)[C@@H](C)CN1c1nc(OC[C@@]23CCCN2C[C@H](F)C3)nc2c(F)c(-c3ccc(F)c4sc(N)nc34)c(Cl)cc12 [Compound A244, ((2S,5R)-4-(7-(2-amino-7-fluorobenzo[d]thiazol-4-yl)-6-chloro-8-fluoro-2-(((2R,7aS)-2-fluorotetrahydro-1H-pyrrolizin-7a(5H)-yl)methoxy)quinazolin-4-yl)-2,5-dimethylpiperazin-1-yl)(1H-1,2,4-triazol-1-yl)meth-anone]		> 10
Nc1nc2c(-c3c(Cl)cc4c(N5CCC6(CN(C(=O)n7cncn7)C6)C5)nc(OC[C@@]56CCCN5C[C@H](F)C6)nc4c3F)ccc(F)c2s1 [Compound A201, (6-(7-(2-amino-7-fluorobenzo-[d]thiazol-4-yl)-6-chloro-8-fluoro-2-(((2R,7aS)-2-fluoro-tetrahydro-1H-pyrrolizin-7a(5H)-yl)methoxy)quinazolin-4-yl)-2,6-diazaspiro[3.4]octan-2-yl)(1H-1,2,4-triazol-1-yl)-methanone]		> 10
N#Cc1c(N)sc2c(F)ccc(-c3c(Cl)cc4c(N5CCC6CN(C(=O)n7cncn7)CC65)nc(OC[C@@]56CCCN5C[C@H](F)C6)nc4c3F)c12 (stereo partly drawn) [Compound A178, 4-(4-(5-(1H-1,2,4-triazole-1-carbonyl)hexahydropyrrolo[3,4-b]pyrrol-1(2H)-yl)-6-chloro-8-fluoro-2-(((2R,7aS)-2-fluoro-tetrahydro-1H-pyrrolizin-7a(5H)-yl)methoxy)quinazolin-7-yl)-2-amino-7-fluorobenzo-[b]thiophene-3-carbonitrile]		> 10
N#Cc1c(N)sc2c(F)ccc(-c3c(Cl)cc4c(N5CCC6CN(C(=O)Nc7ncccn7)CCC65)nc(OC[C@@]56CCCN5C[C@H](F)C6)nc4c3F)c12 (single isomer, unassigned) [Compound A271]		> 10
Nc1nc2c(-c3c(Cl)cc4c(N5CCN(C(=O)n6cncn6)CC5)nc(OC[C@@]56CCCN5C[C@H](F)C6)nc4c3F)ccc(F)c2s1 [Compound A146, (4-(7-(2-amino-7-fluorobenzo-[d]thiazol-4-yl)-6-chloro-8-fluoro-2-(((2R,7aS)-2-fluoro-tetrahydro-1H-pyrrolizin-7a(5H)-yl)methoxy)quinazolin-4-yl)piperazin-1-yl)(1H-1,2,4-triazol-1-yl)methanone]		> 10
